Results published in patent US8273754B2, “Substituted 1H-pyrazolo[3,4-D]pyrimidine-6-amine compounds” (ArQule, Inc., priority 2008, dated 2012).
Like-named read-outs stand apart in the source and are kept apart here.

Assays:
FGFR2 (N549H) = target: T1, FGFR2 (N549H) (Homo sapiens, UniProt P21802, N549H); assay: fluorescent ELISA assay for inhibitors of FGFR2 kinase; type: biochemical; conditions: Pyk2 peptide substrate, 60 minutes
T1 construct: purchased Millipore 14-742
Description: The enzymatic assays described herein are conducted according to the following procedures from commercially available reagents. In one non-limiting example, a fluorescent ELISA assay is used to identify and characterize inhibitors of FGFR2 kinase as described herein. This heterogeneous assay utilizes a biotinylated peptide with a tyrosine motif as a substrate and an anti-phospho-tyrosine antibody to measure phosphorylation of the substrate. The reaction is initiated by adding the test compound, 37 μM Pyk2 substrate (Midwest Biotech, Cat. #MBT2383), 12.5 μM ATP (Roche, Cat. #11 140 965 001) and 0.5 μM FGFR2 enzyme (Millipore, Cat. #14-742) sequentially to a non-binding polypropylene V-well plate. All reagents are in an assay buffer consisting of: 50 mM Tris-HCL, 0.02 mg/ml BSA, 10 mM MgCl2, 0.1 mM Na3VO4, 1 mM EGTA, 75 μM ATP, 0.01% NP-40, 2 mM DTT and 10% glycerol. The reaction is incubated for 60 minutes. As the reaction proceeds, FGFR2 phosphorylates tyrosines in the peptide. The reaction mixture is then moved to a blocked streptavidin-coated Nunc Maxisorb plate (coated with 100 ng streptavidin from Pierce (Cat. #15-124) per well), allowing for the capture of the biotinylated peptide. Peptides are captured for 30 minutes at room temperature, the phosphorylation of peptides continues during this phase. The reaction is stopped by washing the streptavidin-coated plate 6 times with TBST. Phosphorylated peptide is detected by adding anti-phospho-tyrosine antibody (Cell Signaling, Cat. #9411, diluted 1:3000) to the streptavidin-coated plate. Unbound anti-phospho-tyrosine antibody is removed by washing the streptavidin-coated plate 6 times with TBST. Secondary detection is performed using alkaline phosphatase tagged goat anti-mouse antibody (Pierce, Cat. #31320, diluted 1:4000) for one hour. Unbound secondary antibody is removed by washing the streptavidin-coated plate 6 times with TBST. The fluorescent readout is initiated by adding to the streptavidin-coated plate Promega Attophos substrate (Promega, Cat. #S1000, dilution=6 mg/10 ml), which, when dephosphorylated by alkaline phosphatase, emits a fluorescent signal of 595 nm in wavelength when excited by a signal of 400 nm in wavelength. The reading of the 595 nm signal is done on the Perkin Elmer Envision system. Compounds which prevent FGFR2 from phosphorylating the peptide result in a lower fluorescent signal. The 595 nm fluorescent signal is directly proportional to the activity of FGFR2. Thus, the inhibition of FGFR2 by compounds is monitored by the decrease in the 595 nm fluorescent signal.

cancer cells = assay: MTS cell growth inhibition assay (72 hours); type: cell-based
Procedure, shortened: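 Cells in DMEM with 1% FBS, seeded 18 h, then compound-treated 72 h at 37 °C. Viability by MTS/PMS for 4 h, formazan absorbance at 492 nm; IC50 taken as concentration giving 50% absorbance drop, activity banded by percent inhibition.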

[1] = Homo sapiens, DLD-1, 72 h, DLD-1 cells, read-out: DLD-1 MTS 72 hr at 10 μM
[2] = Homo sapiens, KATO III, 72 h, KATO III cells, read-out: KATO III MTS 72 hr at 10 μM
[3] = Homo sapiens, MDA-MB-231, 72 h, MDA-MB-231 cells, read-out: MDA-MB-231 MTS 72 hr at 10 μM
[4] = Homo sapiens, NCI-H1299, 72 h, NCI-H1299 cells, read-out: NCI-H1299 MTS 72 hr at 10 μM
[5] = PaCa-2, 72 h, PACA-2 cells, read-out: PACA-2 MTS 72 hr at 10 μM

T1 sequence (P21802 22-821 N549H): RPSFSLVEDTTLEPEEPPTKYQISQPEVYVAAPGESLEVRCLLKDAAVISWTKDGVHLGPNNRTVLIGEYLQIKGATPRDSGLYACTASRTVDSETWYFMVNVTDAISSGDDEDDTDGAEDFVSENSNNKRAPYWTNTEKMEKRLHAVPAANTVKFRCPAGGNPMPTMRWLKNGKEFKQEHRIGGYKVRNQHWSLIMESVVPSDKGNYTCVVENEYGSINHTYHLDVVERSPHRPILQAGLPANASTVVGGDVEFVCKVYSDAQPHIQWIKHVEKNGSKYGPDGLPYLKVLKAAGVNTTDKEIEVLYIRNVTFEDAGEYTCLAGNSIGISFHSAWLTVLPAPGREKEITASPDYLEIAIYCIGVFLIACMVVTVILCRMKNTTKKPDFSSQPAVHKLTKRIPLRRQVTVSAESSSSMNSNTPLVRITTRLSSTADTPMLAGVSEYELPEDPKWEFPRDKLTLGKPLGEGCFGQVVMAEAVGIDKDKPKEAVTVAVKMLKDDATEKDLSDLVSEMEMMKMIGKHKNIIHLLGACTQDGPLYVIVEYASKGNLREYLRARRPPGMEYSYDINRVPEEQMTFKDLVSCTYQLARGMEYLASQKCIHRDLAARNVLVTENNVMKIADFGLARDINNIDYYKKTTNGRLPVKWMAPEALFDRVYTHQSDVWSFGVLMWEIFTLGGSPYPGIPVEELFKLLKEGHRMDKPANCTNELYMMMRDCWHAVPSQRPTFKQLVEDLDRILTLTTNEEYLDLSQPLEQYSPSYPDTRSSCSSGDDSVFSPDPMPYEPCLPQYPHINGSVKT

| SMILES | IC50 (FGFR2 (N549H)) | melting point | inhibition at 10 µM (cancer cells; [1]) | inhibition at 10 µM (cancer cells; [2]) | inhibition at 10 µM (cancer cells; [3]) | inhibition at 10 µM (cancer cells; [4]) | inhibition at 10 µM (cancer cells; [5]) |
| --- | --- | --- | --- | --- | --- | --- | --- |
| Nc1nc(N[C@@H]2Cc3ccccc3N(Cc3ccc(F)cc3)C2)c2cn[nH]c2n1 [Compound 9, (R)—N4-(1-(4-fluorobenzyl)-1,2,3,4-tetrahydroquinolin-3-yl)-1H-pyrazolo[3,4-d]pyrimidine-4,6-diamine] | 0.22 µM | 140 to 143 °C | 50 to 79% | > 79% | < 50% | 50 to 79% | 50 to 79% |
| Nc1nc(NC2Cc3ccccc3N(CCc3ccccc3)C2)c2cn[nH]c2n1 (stereo not shown) [Compound 2, N^4-(1-(2-phenylethyl)-1,2,3,4-tetrahydroquinolin-3-yl)-1H-pyrazolo[3,4-d]pyrimidine-4,6-diamine] | 0.17 µM | 117 to 122 °C | 50 to 79% | 50 to 79% | < 50% | 50 to 79% | < 50% |
| Nc1nc(NC2Cc3ccccc3N(C(=O)c3ccc(Cl)cc3Cl)C2)c2cn[nH]c2n1 (stereo not shown) [Compound 13, (3-(6-amino-1H-pyrazolo[3,4-d]pyrimidin-4-ylamino)-3,4-dihydroquinolin-1(2H)-yl)(2,4-dichlorophenyl)methanone] | 17.9 µM | 165 to 173 °C | < 50% | < 50% | < 50% | < 50% | < 50% |
| Nc1nc(NC2Cc3ccccc3N(Cc3ccc(Cl)cc3Cl)C2)c2cn[nH]c2n1 (stereo not shown) [Compound 4, N^4-(1-(2,4-dichlorobenzyl)-1,2,3,4-tetrahydroquinolin-3-yl)-1H-pyrazolo[3,4-d]pyrimidine-4,6-diamine] | 3.06 µM | 170 to 174 °C | > 79% | > 79% | > 79% | > 79% | > 79% |
| Nc1nc(NC2Cc3ccccc3N(Cc3ccc(F)cc3F)C2)c2cn[nH]c2n1 (stereo not shown) [Compound 1, N^4-(1-(2,4-difluorobenzyl)-1,2,3,4-tetrahydroquinolin-3-yl)-1H-pyrazolo[3,4-d]pyrimidine-4,6-diamine] | 1.81 µM | 110 to 114 °C | > 79% | > 79% | < 50% | 50 to 79% | 50 to 79% |
| Nc1nc(NC2Cc3ccccc3N(c3ccccc3)C2)c2cn[nH]c2n1 (stereo not shown) [Compound 11, N^4-(1-phenyl-1,2,3,4-tetrahydroquinolin-3-yl)-1H-pyrazolo[3,4-d]pyrimidine-4,6-diamine] | 2.08 µM | 88 to 92 °C | < 50% | < 50% | < 50% | < 50% | < 50% |
| Nc1nc(NC2Cc3ccccc3N(S(=O)(=O)c3ccc(Cl)c(Cl)c3)C2)c2cn[nH]c2n1 (stereo not shown) [Compound 39, N4-(1-(3,4-dichlorophenylsulfonyl)-1,2,3,4-tetrahydroquinolin-3-yl)-1H-pyrazolo[3,4-d]pyrimidine-4,6-diamine] | 0.88 µM | – | < 50% | 50 to 79% | < 50% | < 50% | < 50% |
| Cc1ccc(-c2ccc(S(=O)(=O)N3CC(Nc4nc(N)nc5[nH]ncc45)Cc4ccccc43)cc2)cc1 (stereo not shown) [Compound 50, N4-(1-(4′-methylbiphenyl-4-ylsulfonyl)-1,2,3,4-tetrahydroquinolin-3-yl)-1H-pyrazolo[3,4-d]pyrimidine-4,6-diamine] | > 30 µM | – | 50 to 79% | 50 to 79% | < 50% | < 50% | 50 to 79% |
| CC(C)(C)c1ccc(S(=O)(=O)N2CC(Nc3nc(N)nc4[nH]ncc34)Cc3ccccc32)cc1 (stereo not shown) [Compound 33, N4-(1-(4-tert-butylphenylsulfonyl)-1,2,3,4-tetrahydroquinolin-3-yl)-1H-pyrazolo[3,4-d]pyrimidine-4,6-diamine] | > 30 µM | – | 50 to 79% | 50 to 79% | 50 to 79% | < 50% | > 79% |
| Nc1nc(NC2Cc3ccccc3N(S(=O)(=O)c3ccc(Br)cc3)C2)c2cn[nH]c2n1 (stereo not shown) [Compound 37, N4-(1-(4-bromophenylsulfonyl)-1,2,3,4-tetrahydroquinolin-3-yl)-1H-pyrazolo[3,4-d]pyrimidine-4,6-diamine] | 3.6 µM | – | < 50% | < 50% | < 50% | < 50% | < 50% |

The next lines start with results.

| IC50 (FGFR2 (N549H)) | melting point | SMILES | inhibition at 10 µM (cancer cells; [1]) | inhibition at 10 µM (cancer cells; [2]) | inhibition at 10 µM (cancer cells; [3]) | inhibition at 10 µM (cancer cells; [4]) | inhibition at 10 µM (cancer cells; [5]) |
| --- | --- | --- | --- | --- | --- | --- | --- |
| 19.3 µM | 128 to 132 °C | Nc1nc(NC2Cc3ccccc3N(Cc3cccc(-c4ccccc4)c3)C2)c2cn[nH]c2n1 (stereo not shown) [Compound 224, N4-(1-(biphenyl-3-ylmethyl)-1,2,3,4-tetrahydroquinolin-3-yl)-1H-pyrazolo[3,4-d]pyrimidine-4,6-diamine] | > 79% | > 79% | < 50% | > 79% | > 79% |
| 0.19 µM | – | Nc1nc(NC2Cc3ccccc3N(S(=O)(=O)c3cc(F)ccc3F)C2)c2cn[nH]c2n1 (stereo not shown) [Compound 55, N4-(1-(2,5-difluorophenylsulfonyl)-1,2,3,4-tetrahydroquinolin-3-yl)-1H-pyrazolo[3,4-d]pyrimidine-4,6-diamine] | > 79% | 50 to 79% | 50 to 79% | < 50% | > 79% |
| 22.3 µM | – | COc1ccccc1CN1CC(Nc2nc(N)nc3[nH]ncc23)Cc2ccccc21 (stereo not shown) [Compound 132, N4-[1-(2-methoxybenzyl)-1,2,3,4-tetrahydroquinolin-3-yl]-1H-pyrazolo[3,4-d]pyrimidine-4,6-diamine] | < 50% | < 50% | < 50% | < 50% | < 50% |
| 1.67 µM | – | Cc1cccc(CN2CC(Nc3nc(N)nc4[nH]ncc34)Cc3ccccc32)c1 (stereo not shown) [Compound 122, N4-[1-(3-methylbenzyl)-1,2,3,4-tetrahydroquinolin-3-yl]-1H-pyrazolo[3,4-d]pyrimidine-4,6-diamine] | < 50% | 50 to 79% | < 50% | < 50% | 50 to 79% |
| > 30 µM | – | COc1ccc(OC)c(CN2CC(Nc3nc(N)nc4[nH]ncc34)Cc3ccccc32)c1 (stereo not shown) [Compound 121, N4-(1-(2,5-dimethoxybenzyl)-1,2,3,4-tetrahydroquinolin-3-yl)-1H-pyrazolo[3,4-d]pyrimidine-4,6-diamine] | < 50% | > 79% | < 50% | < 50% | < 50% |
| 3.85 µM | – | Nc1nc(NC2Cc3ccccc3N(S(=O)(=O)c3csc4ccccc34)C2)c2cn[nH]c2n1 (stereo not shown) [Compound 51, N4-(1-(benzo[b]thiophen-3-ylsulfonyl)-1,2,3,4-tetrahydroquinolin-3-yl)-1H-pyrazolo[3,4-d]pyrimidine-4,6-diamine] | < 50% | 50 to 79% | < 50% | < 50% | 50 to 79% |
